{
  "source": "patent US9638702B2",
  "about": "(priority 2001, dated 2017)",
  "key": {"[1]": {"format": "physicochemical"}, "[2]": {"format": "physicochemical", "remark": "listed apart in the source"}},
  "note": "Like-named read-outs stand apart in the source and are kept apart here.",
  "data": [
    {"substance": "poly-L-lysine", "values": [
      {"measurement": "CD minimum", "setting": "[1]; pH 7", "value": "approximately 205 nm"},
      {"measurement": "CD minimum", "setting": "[1]; pH 11", "value": "approximately 216 nm"},
      {"measurement": "absorbance plateau", "setting": "[2]; pH 7", "value": "approximately 0.22"},
      {"measurement": "absorbance plateau", "setting": "[2]; pH 11", "value": "approximately 0.12"}
    ]}
  ]
}
